Reference: patent US9649289B1, “Method and composition for treating dysbiosis and related disease states” (BioAvivus, LLT, priority 2016, dated 2017)

Assay: Median particle size of salsalate before and after Microfluidics homogenizer passes
Format: physicochemical
Excerpt: Using a Microfluidics® Homogenizer 40, passes with the device take the median particle size of salsalate FIG. 1 from about 40 microns down to about 2.4 microns, as shown in FIG. 2. The resulting salsalate is formulated into unit dose oral dosages, as noted above.

O=C(Oc1ccccc1C(=O)O)c1ccccc1O [salsalate]
median particle size (after 40 passes with Microfluidics Homogenizer (micronized salsalate of the invention)): about 2.4 microns | median particle size (after 40 passes with Microfluidics Homogenizer (micronized salsalate of the invention), listed as Salsalate): 2.4 microns | median particle size (starting (regular) salsalate, before homogenization): about 40 microns
